Test results as given in US10837968B2, “Photoactivatable voltage sensitive dyes” (THE REGENTS OF THE UNIVERSITY OF CALIFORNIA, priority 2014, dated 2020).
Several values for one entry are separate records, joined by “and”; a condition that tells them apart may be missing. Identical values can stand only once. Entries after “also recorded” stand apart in the source; their conditions may differ.

Experiments:
[1] = Spectroscopic characterization of SPOT in PBS, pH 7, before and after UV illumination; type: physicochemical
Method: (§1) FIGS. 1A-1E. Illumination of SPOT dramatically increases fluorescence. Spectroscopic characterization of SPOT in PBS, pH 7. a) Absorbance profile of SPOT before (grey dotted trace) and after (green trace) illumination at 365 nm. The UV-vis spectrum of photoactivated SPOT is identical to a known standard of VF2.1.C1 (black trace). b) Emission spectrum of SPOT before (grey dotted trace) and after illumination (green trace) at 365 nm. c) HEK cells loaded with 200 nM SPOT prior to illumination. d) Cells from c) after illumination with 390 nm light for 30 seconds. e) Quantification of cellular fluorescence from cells stained with SPOT pre- and post-UV photoactivation. Illumination as in panel d) gives a 12-fold increase in fluorescence intensity (n=3).
FIG. 2. Characterization of SPOT photoproducts.
SPOT is readily available in one step from previously reported VoltageFluor compounds (Miller, et al., Natl Acad Sci USA, 2012, 109:2114). Alkylation of VF2.1.C1 with 2-nitro-4,5-dimethoxybenzylbromide in DMF provides SPOT as an analytically pure sample after purification via HPLC. Larger quantities are available through an alternate route in which the sulfonefluorescein head-group is first alkylated and then coupled to the phenylenevinylene molecular wire to give SPOT. We examined the photophysical behavior and characteristics of SPOT under simulated physiological conditions (PBS, pH 7). […] Emission from SPOT is minimal (FIG. 1B, grey trace), as reflected by its low fluorescence quantum yield. UV illumination of SPOT promptly delivers VF, as measured by complete recovery of absorbance profiles characteristic of VF2.1.C1 (FIG. 1A, green and black traces) and a 25-fold increase in fluorescence emission (FIG. 1B green trace).

[2] = system: human embryonic kidney cells (HEK 293); test: Cellular fluorescence of SPOT-stained HEK cells pre- and post-UV photoactivation; type: cell-based; settings: HEK cells loaded with 200 nM SPOT; 390 nm light for 30 seconds; n=3
Method: as §1
We next turned our attention to assessing the properties of SPOT in living cells. […] Illumination with 390 nm (30 s) light results in an immediate increase in cell membrane-associated fluorescence characteristic of VoltageFluor staining (FIG. 1D). […] Membrane-associated fluorescence depends on prior UV illumination, as examination of areas of the same sample not exposed to light show very little cellular fluorescence. […] Following illumination, the cells stained with SPOT become bright and voltage-sensitive. […]

absorbance maximum (λmax / strong absorbance) ([1]; PBS, pH 7, before illumination): 400 nm
fluorescence quantum yield ([1]; PBS, pH 7, before illumination): low
increase in fluorescence emission after UV illumination ([1]; PBS, pH 7, illumination at 365 nm): 25 fold
Compound: COc1cc(COc2cc3oc4cc(=O)c(Cl)cc-4c(-c4ccc(/C=C/c5ccc(/C=C/c6ccc(N(C)C)cc6)cc5)cc4S(=O)(=O)O)c3cc2Cl)c([N+](=O)[O-])cc1OC [SPOT, 2-(2,7-dichloro-6-((4,5-dimethoxy-2-nitrobenzyl)oxy)-3-oxo-3H-xanthen-9-yl)-5-((E)-4-((E)-4-(dimethylamino)styryl)styryl)benzenesulfonic acid]
photoproduct of irradiation (HPLC and mass spectrometry) ([1]; phosphate buffered saline, pH 7.0, 365 nm light): clean conversion of SPOT into VF2.1.C1; also recorded: cleanly gives VF2.1.C1
increase in mean cellular fluorescence intensity following irradiation [2]: 12±1.2 fold and 12 fold
